pIC50: −log10 of the molar value. The source made the active and inactive calls. No cut-off for these calls is given here.
Tests used:
Histone deacetylase 2 = Histone deacetylase 2 (Homo sapiens, UniProt Q92769); assay: Inhibition of recombinant human C-terminal GST-tagged HDAC2 (1 to 488 residues) expressed in baculovirus infected sf21 cells using RHK-K(Ac)-AMC as substrate after 60 mins by fluorimetry assay; conditions: read-out: IC50
Histone deacetylase 9 = Histone deacetylase 9 (Homo sapiens, UniProt Q9UKV0); assay: Inhibition of human HDAC9 using fluorogenic Boc-Lys(trifluoroacetyl)-AMC as substrate by fluorescence based analysis
[1] = Half life in Sprague-Dawley rat at 2 mg/kg, iv measured up to 24 hrs; assay type: ADME, organism-based; conditions: in vivo
[2] = Oral bioavailability in Sprague-Dawley rat at 10 mg/kg measured up to 24 hrs; assay type: ADME, organism-based; conditions: in vivo
Histone deacetylase 1 = Histone deacetylase 1 (Homo sapiens, UniProt Q13547); assay: Inhibition of recombinant full length human C-terminal FLAG/His-tagged HDAC1 (1 to 482 residues) expressed in baculovirus infected Sf21 cells using RHK-K(Ac)-AMC as substrate measured after 60 mins by fluorimetric assay; conditions: read-out: IC50
Mus musculus [3] = assay: Upregulation of acetylated H4K5 protein expression in hippocampus of bilateral common carotid artery occlusion-induced vascular dementia C57BL/6J mouse model at 25 mg/kg, ip measured after 3 months by Western blot analysis; assay type: functional, organism-based
Mus musculus [4] = assay: Upregulation of acetylated H3K14 protein expression in hippocampus of bilateral common carotid artery occlusion-induced vascular dementia C57BL/6J mouse model at 25 mg/kg, ip measured after 3 months by Western blot analysis; assay type: functional, organism-based
Histone deacetylase 7 = molecular target: T1, Histone deacetylase 7 (Homo sapiens, UniProt Q8WUI4); assay: Inhibition of recombinant human N-terminal GST-tagged HDAC7 (518 to 991 residues) expressed in baculovirus infected insect cells using Boc-K(Ac)-AMC as substrate after 90 mins by fluorimetry analysis
T1 sequence (Q8WUI4 whole entry): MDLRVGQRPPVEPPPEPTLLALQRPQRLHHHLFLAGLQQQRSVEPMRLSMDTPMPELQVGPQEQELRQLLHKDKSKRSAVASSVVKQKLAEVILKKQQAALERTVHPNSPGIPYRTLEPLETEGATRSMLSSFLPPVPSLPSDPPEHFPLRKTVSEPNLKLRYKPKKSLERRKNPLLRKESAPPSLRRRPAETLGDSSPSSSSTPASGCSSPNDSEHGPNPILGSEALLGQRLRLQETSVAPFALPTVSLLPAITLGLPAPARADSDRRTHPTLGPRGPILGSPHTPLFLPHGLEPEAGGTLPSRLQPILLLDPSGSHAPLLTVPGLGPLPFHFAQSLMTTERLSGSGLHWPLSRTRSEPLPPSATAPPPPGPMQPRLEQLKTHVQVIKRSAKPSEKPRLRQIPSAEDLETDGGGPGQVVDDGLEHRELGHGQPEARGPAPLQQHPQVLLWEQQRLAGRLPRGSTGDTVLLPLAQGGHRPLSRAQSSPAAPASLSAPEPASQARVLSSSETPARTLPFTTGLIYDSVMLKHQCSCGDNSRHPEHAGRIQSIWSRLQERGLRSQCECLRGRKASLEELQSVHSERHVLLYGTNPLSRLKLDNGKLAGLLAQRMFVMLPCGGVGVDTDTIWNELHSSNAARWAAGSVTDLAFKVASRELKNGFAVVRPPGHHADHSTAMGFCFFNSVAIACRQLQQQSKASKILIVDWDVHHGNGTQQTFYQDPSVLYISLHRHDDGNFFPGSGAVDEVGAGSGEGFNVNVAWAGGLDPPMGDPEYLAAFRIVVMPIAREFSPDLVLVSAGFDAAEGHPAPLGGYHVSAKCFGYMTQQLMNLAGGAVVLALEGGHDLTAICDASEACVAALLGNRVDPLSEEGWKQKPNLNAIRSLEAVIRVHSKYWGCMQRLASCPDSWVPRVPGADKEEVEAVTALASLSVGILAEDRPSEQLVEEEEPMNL

[5] = Half life in Sprague-Dawley rat at 10 mg/kg, po measured up to 24 hrs; assay type: ADME, organism-based; conditions: in vivo
Mus musculus [6] = assay: (§1) Anti-vascular cognitive impairment activity against bilateral common carotid artery occlusion-induced vascular dementia C57BL/6J mouse model assessed as reduction in cerebral blood flow at 25 mg/kg, ip administered post surgery measured after 3 months relative to sham-operated control; assay type: functional; parameters: scale not given: the % may be the effect or the level left
[7] = AUC (0 to infinity) in Sprague-Dawley rat at 10 mg/kg, po measured up to 24 hrs; assay type: ADME, organism-based; parameters: dose 10 mg/kg, time infinity, route oral; conditions: in vivo
[8] = Microsomal stability in rat liver microsomes assessed as parent compound remaining measured after 30 mins; assay type: ADME, Microsome; conditions: read-out: Stability
[9] = Microsomal stability in human liver microsomes assessed as parent compound remaining measured after 30 mins; assay type: ADME, Microsome; conditions: read-out: Stability
Mus musculus [10] = assay: as §1, with “ratio of” for “reduction in”, “flow in left parietal area” for “flow”, “months(reference value: 0.792 +/- 0.029)” for “months relative to sham-operated control”; assay type: functional
Mus musculus [11] = assay: Anti-vascular cognitive impairment activity against bilateral common carotid artery occlusion-induced vascular dementia C57BL/6J mouse model assessed as reversal of hippocampal atrophy by measuring increase in ratio of size of hippocampus to lateral ventricle at 25 mg/kg, ip administered post surgery measured after 3 months by 7T-MRI analysis; assay type: functional, organism-based
Histone deacetylase 5 = Histone deacetylase 5 (Homo sapiens, UniProt Q9UQL6); assay: Inhibition of recombinant human C-terminal His-tagged HDAC5 (657 to 1123 residues) expressed in baculovirus infected insect cells using Boc-K(Ac)-AMC as substrate after 60 mins by fluorimetry analysis
Sequence of Histone deacetylase 5 (Q9UQL6 whole entry, the tested form may be a part): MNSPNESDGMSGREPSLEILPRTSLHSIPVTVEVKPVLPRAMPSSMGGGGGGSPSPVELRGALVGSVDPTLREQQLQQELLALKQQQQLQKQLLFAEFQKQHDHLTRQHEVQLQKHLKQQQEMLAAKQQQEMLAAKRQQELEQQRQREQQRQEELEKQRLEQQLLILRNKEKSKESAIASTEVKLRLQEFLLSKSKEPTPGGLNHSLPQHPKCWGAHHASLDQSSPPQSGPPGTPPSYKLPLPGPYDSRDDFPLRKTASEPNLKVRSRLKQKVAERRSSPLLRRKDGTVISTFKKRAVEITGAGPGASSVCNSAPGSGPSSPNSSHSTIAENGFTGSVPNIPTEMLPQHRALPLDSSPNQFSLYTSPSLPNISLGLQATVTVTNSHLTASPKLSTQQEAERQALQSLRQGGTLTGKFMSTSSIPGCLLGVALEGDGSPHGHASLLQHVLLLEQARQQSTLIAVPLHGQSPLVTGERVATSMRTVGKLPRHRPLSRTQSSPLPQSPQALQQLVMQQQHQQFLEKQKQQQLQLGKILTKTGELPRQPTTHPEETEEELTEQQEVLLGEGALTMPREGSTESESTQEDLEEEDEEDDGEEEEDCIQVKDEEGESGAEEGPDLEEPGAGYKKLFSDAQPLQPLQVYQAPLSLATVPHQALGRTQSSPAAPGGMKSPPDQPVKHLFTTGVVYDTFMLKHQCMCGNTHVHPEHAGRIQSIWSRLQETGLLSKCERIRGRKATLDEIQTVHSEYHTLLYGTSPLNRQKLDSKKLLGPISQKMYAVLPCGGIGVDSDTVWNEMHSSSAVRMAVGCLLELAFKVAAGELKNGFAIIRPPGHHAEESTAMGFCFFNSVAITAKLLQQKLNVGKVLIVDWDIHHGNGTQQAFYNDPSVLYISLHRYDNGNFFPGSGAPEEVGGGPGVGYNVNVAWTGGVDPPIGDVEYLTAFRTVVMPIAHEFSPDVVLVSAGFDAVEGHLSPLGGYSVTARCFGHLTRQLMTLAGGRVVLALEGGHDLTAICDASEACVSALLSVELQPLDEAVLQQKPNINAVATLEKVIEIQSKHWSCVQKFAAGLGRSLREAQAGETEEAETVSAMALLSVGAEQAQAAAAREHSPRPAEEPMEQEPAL

Sequence of Histone deacetylase 9 (Q9UKV0 whole entry): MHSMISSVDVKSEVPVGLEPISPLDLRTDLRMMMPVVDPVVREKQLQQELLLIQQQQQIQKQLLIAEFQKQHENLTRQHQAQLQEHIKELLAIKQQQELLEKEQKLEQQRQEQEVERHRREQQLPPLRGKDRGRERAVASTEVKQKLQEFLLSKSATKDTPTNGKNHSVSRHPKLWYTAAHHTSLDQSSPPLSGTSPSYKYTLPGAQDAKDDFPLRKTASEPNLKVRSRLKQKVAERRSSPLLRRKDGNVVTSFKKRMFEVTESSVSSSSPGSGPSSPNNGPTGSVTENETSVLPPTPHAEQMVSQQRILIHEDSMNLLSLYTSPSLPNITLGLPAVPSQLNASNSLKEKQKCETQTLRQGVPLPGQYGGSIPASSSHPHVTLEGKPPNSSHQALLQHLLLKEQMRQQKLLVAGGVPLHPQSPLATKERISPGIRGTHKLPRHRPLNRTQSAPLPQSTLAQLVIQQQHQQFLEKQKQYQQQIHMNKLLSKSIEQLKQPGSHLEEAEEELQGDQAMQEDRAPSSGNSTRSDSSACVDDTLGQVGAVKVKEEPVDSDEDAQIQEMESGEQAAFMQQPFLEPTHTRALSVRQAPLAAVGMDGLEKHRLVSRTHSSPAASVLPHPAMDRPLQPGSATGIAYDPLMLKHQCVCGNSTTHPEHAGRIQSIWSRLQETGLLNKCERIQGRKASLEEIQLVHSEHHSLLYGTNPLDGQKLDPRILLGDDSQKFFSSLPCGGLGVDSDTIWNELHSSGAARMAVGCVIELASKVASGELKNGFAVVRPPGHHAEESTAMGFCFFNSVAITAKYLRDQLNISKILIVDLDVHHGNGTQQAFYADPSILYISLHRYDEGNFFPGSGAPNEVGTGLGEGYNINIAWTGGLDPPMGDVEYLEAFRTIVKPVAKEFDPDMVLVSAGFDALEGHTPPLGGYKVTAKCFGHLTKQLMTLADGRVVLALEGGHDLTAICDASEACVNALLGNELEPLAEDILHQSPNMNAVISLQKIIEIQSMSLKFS
Sequence of Histone deacetylase 2 (Q92769 whole entry, the tested form may be a part): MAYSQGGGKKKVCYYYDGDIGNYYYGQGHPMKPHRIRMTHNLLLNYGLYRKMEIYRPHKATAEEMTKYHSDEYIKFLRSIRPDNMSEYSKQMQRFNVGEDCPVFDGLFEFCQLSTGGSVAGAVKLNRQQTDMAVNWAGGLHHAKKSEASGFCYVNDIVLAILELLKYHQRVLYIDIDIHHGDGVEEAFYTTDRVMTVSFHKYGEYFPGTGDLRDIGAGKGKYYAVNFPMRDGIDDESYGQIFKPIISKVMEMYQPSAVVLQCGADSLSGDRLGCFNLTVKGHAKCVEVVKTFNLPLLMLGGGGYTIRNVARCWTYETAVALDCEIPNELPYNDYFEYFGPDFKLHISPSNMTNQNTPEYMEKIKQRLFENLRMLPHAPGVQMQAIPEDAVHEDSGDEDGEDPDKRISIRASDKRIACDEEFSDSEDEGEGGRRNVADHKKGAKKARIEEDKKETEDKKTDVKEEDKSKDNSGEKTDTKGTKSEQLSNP
Sequence of Histone deacetylase 1 (Q13547 whole entry, the tested form may be a part): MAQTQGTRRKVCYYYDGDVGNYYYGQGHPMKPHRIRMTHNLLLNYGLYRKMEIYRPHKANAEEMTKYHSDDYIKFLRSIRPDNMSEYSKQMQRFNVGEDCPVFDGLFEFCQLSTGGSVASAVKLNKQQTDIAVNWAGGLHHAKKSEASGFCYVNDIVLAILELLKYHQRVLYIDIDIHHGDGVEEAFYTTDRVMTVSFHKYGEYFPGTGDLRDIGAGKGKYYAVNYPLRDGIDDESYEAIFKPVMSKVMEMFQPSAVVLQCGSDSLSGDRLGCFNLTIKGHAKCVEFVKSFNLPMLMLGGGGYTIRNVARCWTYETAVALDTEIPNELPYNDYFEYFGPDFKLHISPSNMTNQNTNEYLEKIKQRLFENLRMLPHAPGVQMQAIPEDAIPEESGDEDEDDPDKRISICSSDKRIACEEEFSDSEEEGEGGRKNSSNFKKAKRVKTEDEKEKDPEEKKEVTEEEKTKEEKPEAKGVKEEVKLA

- pIC50 (Histone deacetylase 2): 5.18
- IC50 (Histone deacetylase 9): Not Active
- half-life [1]: 17.2 h
- bioavailability [2]: 1.8%
- pIC50 (Histone deacetylase 1): 5.42
- IC50 (Histone deacetylase 7): Not Active
- half-life [5]: 10.9 h
- AUC(0-inf) [7]: 166 ng·h/mL
- remaining at 0.5 h [8]: 37.4%
- remaining at 0.5 h [9]: 81.5%
- pIC50 (Histone deacetylase 5): 5.20
Structure (SMILES): O=C(/C=C/c1ccc(CNCCCN2c3ccccc3CCc3ccc(Cl)cc32)cc1)NO
- Activity (Mus musculus [3]): Active
- Activity (Mus musculus [4]): Active
- Activity (Mus musculus [6]): 89 - 92%
- Ratio (Mus musculus [10]): 0.896
- Activity (Mus musculus [11]): Active

From ChEMBL document CHEMBL4602647, “Protective effects of 10,11-dihydro-5H-dibenzo[b,f]azepine hydroxamates on vascular cognitive impairment” (Eur J Med Chem, 2020)
